Here are results for five compounds from US5376673A, “Isoindoles having cardiovascular activity” (Italfarmaco S.p.A., priority 1991, dated 1994).

In test [1] the test system is rabbit aorta. Kind of test: In vitro vasorelaxing activity (aorta strip contracted with noradrenaline). The conditions noted are these: Oryctolagus cuniculus, contraction induced by noradrenaline. As to the method:
The vasorelaxing activity of the compounds of the invention was determined on rabbit aorta which had been contracted with noradrenaline, according to the method described in Eur. J. Pharmacol, 141, 195 (1987).
IC50 = concentration of active substance, expressed in mole/liter,
able to inhibit by 50% the contraction of the aorta "strip" induced by […]

For test [2], the system named is Sprague Dawley anaesthetized rats. Kind of test: Vasopressine angina in the anaesthetized rat (in vivo antianginal activity). Also on record: species or system Sprague Dawley rat. The conditions noted are these: 3 mg/kg by gastric gavage, 1 hour before Arg-vasopressin i.v. As to the method:
The in vivo antianginal activity was evidenced on Sprague Dawley anaesthetized rats, weighing 350-400 g, operating according to the procedure of M. Leitold et al., Arzneim. Forsch. 36, 1454, 1986. The test was carried out administering the animal intravenously with 1 I. U./kg, equivalent to […] of Arg-vasopressin, which induces a coronary spasm which can be reproduced and evidenced electrocardiographycally with an increase in the amplitude of the T wave. The compounds of the invention were admininistered by gastric gavage at a dose of 3 mg/kg, 1 hour before administration of Argvasopressin. The antianginal effect was expressed as percent inhibition of the T wave increase versus controls.

`CCCC(=O)OC1c2ccccc2C(=O)N1CCO[N+](=O)[O-]` (centres unmarked) [Example 3]: the IC50 (usually the concentration that inhibits the measured activity by half) in test [1] worked out at 2400 nM. Further, in test [2], the “Effect (percent inhibition of the T wave increase versus controls)” value is on record as -55.2%.

The compound `O=C1c2ccccc2C(O)N1CCO[N+](=O)[O-]` (centres unmarked) [Example 1, 3-Hydroxy-2-(2-nitrooxyethyl)-1-oxoisoindolin] showed an IC50 in test [1] of 1300 nM. In addition, in test [2], the “Effect (percent inhibition of the T wave increase versus controls)” value was -56.1%.

In test [1], `O=C(OC1c2ccccc2C(=O)N1CCO[N+](=O)[O-])c1ccccc1` (centres unmarked) [Example 4, 3-Benzoyloxy-2-(5-nitrooxyethyl)-1-oxoisoindolin] gave an IC50 of 3200 nM. Also, the “Effect (percent inhibition of the T wave increase versus controls)” value in test [2] is given as -34.5%.

The compound `CC(=O)OC1c2ccccc2C(=O)N1CCO[N+](=O)[O-]` (centres unmarked) [Example 2, 3-Acetoxy-2-(2-nitrooxyethyl)-1-oxoisoindolin] registered an IC50 in test [1] of 1200 nM.

The compound `O=C1c2ccccc2C(O)N1CCCCCO[N+](=O)[O-]` (centres unmarked) [Example 5, 3-Hydroxy-2-(5-nitrooxypentyl)-1-oxoisoindolin] returned an IC50 in test [1] of 13000 nM. This IC50 is about 11-fold higher than that of the compound before.
